Test results reported in paper PMC9482650, “Quantitative fragmentomics allow affinity mapping of interactomes” (Nature Communications, 2022).
Ends that are not written are not given here. * marks the point of attachment. Biotin = O=C1N[C@H]2[C@H](CS[C@H]2CCCCC(=O)*)N1; ttds = NCCCOCCOCCOCCCNC(=O)CCC(=O)*

Assays:
DLG1 = assay: PBM-AP-MS from Jurkat extract; type: binding, Homo sapiens; conditions: prey DLG1, PBM peptide bait
LIN7C = assay: PBM-AP-MS from Jurkat extract; type: binding, Homo sapiens; conditions: prey LIN7C, PBM peptide bait

| Substance | Enrichment values compared to biotin controls (DLG1) | Enrichment values compared to biotin controls (LIN7C) |
| --- | --- | --- |
| HPV30E6 ({Biotin-ttds}-RHTTSTETAV) | 488.6 | 26.9 |
| HPV18E6 | 519.3 | 68.0 |
| HPV35E6 ({Biotin-ttds}-SKPTRRETEV) | 596.6 | 34.7 |
